Experimental data as given in patent US5703085A, “Xanthine derivatives” (Kyowa Hakko Kogyo Co., Ltd., priority 1994, dated 1997).
Like-named read-outs stand apart in the source and are kept apart here.

Experiments:
[1] = molecular target: T1, A2 Receptor (Rattus norvegicus, UniProt P30543); assay: Adenosine A2 receptor binding test (inhibition of 3H-CGS 21680 binding); settings: rat corpus striatum, 3H-CGS 21680 4.0 nM
T1 construct: from tissue; host or cells: rat corpus striatum (membrane suspension)
Description: Adenosine Receptor Antagonistic Activity (Adenosine A2 Receptor Binding Test)
The test was conducted according to the method of Bruns et al. [Mol. Pharmacol., 29, 331 (1986)] with slight modification.
Corpus striatum of a rat was suspended in ice-cooled 50 mM Tris (hydroxymethyl) aminomethane hydrochloride (Tris HCl) buffer (pH 7.7) by using Polytron homogenizer (manufactured by Kinematica Co.). The suspension was centrifuged (50,000×g, 10 minutes), and the precipitate was suspended again in the same amount of 50 mM Tris HCl buffer. The suspension was centrifuged under the same conditions, and the final precipitate was suspended in 50 mM Tris HCl buffer [containing 10 mM magnesium chloride and 0.02 unit/mg tissue of adenosine deaminase (manufactured by Sigma Co.)] to give a tissue concentration of 5 mg (wet weight)/ml.
To 1 ml of the tissue suspension thus prepared were added 50 μl of tritium labeled CGS 21680 {^3 H-2-[p-(2-carboxyethyl) phenethylamino]-5'-(N-ethylcarboxamide)-adenosine: 40 Ci/mmol; manufactured by New England Nuclear Co. [J. Pharmacol. Exp. Ther., 251, 888 (1989)]} (final concentration: 4.0 nM) and 50 μl of a test compound. The resulting mixture was allowed to stand at 25° C. for 120 minutes and then rapidly filtered by suction through a glass fiber filter (GF/C; manufactured by Whatman Co.). The filter was immediately washed three times with 5 ml each of ice-cooled 50 mM Tris HCl buffer, and transferred to a vial, and a scintillator (EX-H; manufactured by Wako Pure Chemical Industries, Ltd.) was added thereto. The radioactivity on the filter was determined with a liquid scintillation counter (manufactured by Packard Instrument Co.).
The inhibition rate of the test compound against the binding of A2 receptors (^3 H-CGS 21680 binding) was calculated by the following equation: [formula] [Notes]B: Amount of the binding in the presence of the test compound.
T: Amount of the total binding.
N: Amount of the nonspecific binding.
Amount of the total binding means the amount of radioactivity of ^3 H-CGS 21680 bound in the absence of the test compound. Amount of the nonspecific binding means the amount of radioactivity of ^3 H-CGS 21680 bound in the presence of 100 μM cyclopentyladenosine (CPA; manufactured by Sigma Co.). Amount of the binding in the presence of the test compound means the amount of radioactivity of ^3 H-CGS 21680 bound in the presence of the test compound at various levels of concentrations.

[2] = Effect on haloperidol-induced catalepsy; format: in vivo, male ddY mice; settings: 10 mg/kg po; for Total Score (catalepsy): 1 h after compound; for inhibition in vivo at 10 mg/kg: Mus musculus, 1 h, decrease in total score vs control group, read-out: Remission Rate (%)
Description: Effect on Haloperidol-Induced Catalepsy
Parkinson's disease is a clinical syndrome caused by degeneration and cell death of nigrostriatal dopaminergic neurons. Administration of haloperidol (dopamine D1 /D2 antagonist) induces catalepsy resulting from the blockade of postsynaptic dopamine D2 receptors.
The experiment was carried out using several groups of 5-week-old male ddY mice (weighing 22 to 24 g, Japan SLC), each group consisting of 5 or 10 mice. Haloperidol (manufactured by Janssen Pharmaceutica) was suspended in 0.3% CMC and imtraperitoneally administered to each mouse at a dose of 1.0 mg/kg. A test compound was suspended in injectable distilled water (manufactured by Otsuka Pharmaceutical Co., Ltd.) after adding Tween 80 [polyoxyethylene (20) sorbitan monooleate]. L-DOPA (manufactured by Kyowa Hakko Kogyo Co., Ltd.) and benserazide hydrochloride (manufactured by Kyowa Hakko Kogyo Co., Ltd.) were suspended in 0.3% CMC. One hour after the intraperitoneal administration of haloperidol, the suspension containing the test compound or the suspension containing no test compound [injectable distilled water (manufactured by Otsuka Pharmaceutical Co., Ltd.) containing Tween 80; control] were orally administered to the separate groups of the mice (0.1 ml per 10 g of body weight). One hour after the administration of the test compound, the forelimbs of each mouse and subsequently the hindlimbs of the same mouse were placed on a 4.5 cm-high, 1.0 cm-wide bar and catalepsy was estimated. All of the test compounds were orally administered at a dose of 10 mg/kg, and L-DOPA (100 mg/kg) and benserazide (25 mg/kg) were intraperitoneally administered together as a control. The catalepsy score and the standard of judgment are shown below. […]
Score Duration of the category
0: forelimbs less than 5 seconds
hindlimbs less than 5 seconds
1: forelimbs from 5 (inclusive)
to 10 (exclusive) seconds
2: forelimbs 10 seconds or more
3: (1) forelimbs from 5 (inclusive)
hindlimbs from 5 (inclusive)
or (2) forelimbs less than 5 seconds
hindlimbs 5 seconds or more
4: (1) forelimbs 10 seconds or more
or (2) forelimbs from 5 (inclusive)
hindlimbs 10 seconds or more
5: forelimbs 10 seconds or more
The effect of the compounds was evaluated by the total of the catalepsy scores of 5 or 10 mice in each group (25 or 50 points at the maximum). The groups wherein the total score was not more than 20 or 40 points were estimated to be effective. The number of the animals showing remission against catalepsy is the number of the mice for which the catalepsy score was not more than 4 points in 5 or 10 mice.

[3] = Effect on clonidine-induced aggressive behavior; format: in vivo, male ddY mice; settings: 2.5 mg/kg, po, clonidine 20 mg/kg ip
Description: Effect on Clonidine-Induced Aggressive Behavior
The enhancement effect of the test compounds on the aggressive behavior induced by intraperitoneal administration of clonidine [Eur. J. Pharmacol., 29, 374 (1968)] was investigated.
The experiment was performed using several groups of male ddY mice weighing 20 to 25 g (Japan SLC), each group consisting of two mice. A test compound was suspended in injectable distilled water (manufactured by Otsuka Pharmaceutical Co., Ltd.) after adding Tween 80. Clonidine hydrochloride (manufactured by Sigma Co.) was dissolved in physiological saline solution (manufactured by Otsuka Pharmaceutical Co., Ltd.). The suspension containing the test compound and the suspension containing no test compound (control) were orally administered to the separate groups of the mice (0.1 ml per 10 g of body weight). Sixty minutes after the oral administration of the test compound, clonidine hydrochloride (20 mg/kg) was intraperitoneally administered. The number of biting attacks during the 30 minutes immediately after the clonidine treatment was counted. The effect of the compounds was evaluated by comparing the number of biting attacks of the test compound-administered groups with that of control groups (significance test: Student' t-test).

[4] = out of 10 mice (score not more than 4)

T1 sequence (P30543 whole entry): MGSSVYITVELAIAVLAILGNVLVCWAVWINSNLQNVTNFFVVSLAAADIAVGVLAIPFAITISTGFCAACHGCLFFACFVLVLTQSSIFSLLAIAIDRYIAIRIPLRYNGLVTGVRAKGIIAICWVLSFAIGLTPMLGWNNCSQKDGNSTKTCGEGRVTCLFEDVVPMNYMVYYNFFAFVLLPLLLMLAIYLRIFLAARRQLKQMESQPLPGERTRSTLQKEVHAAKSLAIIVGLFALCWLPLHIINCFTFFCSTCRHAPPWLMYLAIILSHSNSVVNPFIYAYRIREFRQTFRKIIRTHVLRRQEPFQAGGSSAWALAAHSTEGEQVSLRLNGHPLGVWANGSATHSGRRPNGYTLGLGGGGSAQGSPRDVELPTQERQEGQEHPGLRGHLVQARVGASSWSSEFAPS

| Structure (SMILES) | A2 Receptor Inhibition Rate (%) ([1]; 10^-6 M) | A2 Receptor Inhibition Rate (%) ([1]; 10^-7 M) | further results |
| --- | --- | --- | --- |
| CCn1c(=O)c2c(nc(/C=C/c3cc(OC)c(OC(=O)c4ccccc4)c(OC)c3)n2C)n(CC)c1=O [Compound 18, (E)-8-(4-Benzoyloxy-3,5-dimethoxystyryl)-1,3-diethyl-7-methylxanthine] | 97 | 82 | Total Score (catalepsy) ([2]; 10 mice (max 50 points)): 30; Number of Animals Showing Remission [2, 4]: 7; inhibition in vivo at 10 mg/kg ([2]; 10 mice): 40% |
| CCn1c(=O)c2c(nc(/C=C/c3ccc(OC(=O)C(C)(C)C)c(OC)c3)n2C)n(CC)c1=O [Compound 13, (E)-1,3-Diethyl-8-(3-methoxy-4-pivaloyloxystyryl)-7-methylxanthine] | – | – | Total Score (catalepsy) ([2]; 10 mice (max 50 points)): 14; Number of Animals Showing Remission [2, 4]: 9; inhibition in vivo at 10 mg/kg ([2]; 10 mice): 72%; Ratio of Attacks: Test Compd.-Treated Group/Control Group [3]: 10.1; Number of the Biting Attacks (mean ± S.E.M.), Test Compound-Treated Group ([3]; 30 min count): 24.3 ± 6.6 |
| CCn1c(=O)c2c(nc(/C=C/c3cccc(OC(C)=O)c3OC(C)=O)n2C)n(CC)c1=O [Compound 26, (E)-8-(2,3-Diacetoxystyryl)-1,3-diethyl-7-methylxanthine] | 101 | 75 | – |
| CCn1c(=O)c2c(nc(/C=C/c3cccc(OC(=O)c4ccccc4)c3)n2C)n(CC)c1=O [Compound 22, (E)-8-(3-Benzoyloxystyryl)-1,3-diethyl-7-methylxanthine] | 99 | 92 | – |
| CCCn1c(=O)c2c(nc(/C=C/c3ccc(OC(C)=O)c(OC(C)=O)c3)n2C)n(CCC)c1=O [Compound 1, (E)-8-(3,4-Diacetoxystyryl)-7-methyl-1,3-dipropylxanthine] | 93 | 89 | – |
| CCn1c(=O)c2c(nc(/C=C/c3cccc(OC(C)=O)c3)n2C)n(CC)c1=O [Compound 21, (E)-8-(3-Acetoxystyryl)-1,3-diethyl-7-methylxanthine] | 96 | 81 | – |
| C=CCn1c(=O)c2c(nc(/C=C/c3cc(OC)c(OC(C)=O)c(OC)c3)n2C)n(CC=C)c1=O [Compound 19, (E)-8-(4-Acetoxy-3,5-dimethoxystyryl)-1,3-diallyl-7-methylxanthine] | 96 | 91 | – |
| CCn1c(=O)c2c(nc(/C=C/c3cccc(OC)c3OC(C)=O)n2C)n(CC)c1=O [Compound 25, (E)-8-(2-Acetoxy-3-methoxystyryl)-1,3-diethyl-7-methylxanthine] | 101 | 95 | – |
| C=CCn1c(=O)c2c(nc(/C=C/c3ccc(OC(C)=O)c(OC)c3)n2C)n(CC=C)c1=O [Compound 15, (E)-8-(4-Acetoxy-3-methoxystyryl)-1,3-diallyl-7-methylxanthine] | 91 | 85 | – |
| CCCn1c(=O)c2c(nc(/C=C/c3ccc(OC)c(OC(C)=O)c3)n2C)n(CCC)c1=O [Compound 3, (E)-8-(3-Acetoxy-4-methoxystyryl)-7-methyl-1,3-dipropylxanthine] | 96 | 61 | – |
| CCn1c(=O)c2c(nc(/C=C/c3cc(OC)c(OC(C)=O)c(OC)c3)n2C)n(CC)c1=O [Compound 17, (E)-8-(4-Acetoxy-3,5-dimethoxystyryl)-1,3-diethyl-7-methylxanthine] | 97 | 80 | Total Score (catalepsy) ([2]; 10 mice (max 50 points)): 30; Number of Animals Showing Remission [2, 4]: 7; inhibition in vivo at 10 mg/kg ([2]; 10 mice): 40% |
| CCn1c(=O)c2c(nc(/C=C/c3ccc(OC(=O)c4ccccc4)c(OC)c3)n2C)n(CC)c1=O [Compound 7, (E)-8-(4-Benzoyloxy-3-methoxystyryl)-1,3-diethyl-7-methylxanthine] | 97 | 87 | Total Score (catalepsy) ([2]; 5 mice (max 25 points; control 25)): 14; Number of Animals Showing Remission ([2]; out of 5 mice (score not more than 4)): 3; inhibition in vivo at 10 mg/kg ([2]; 5 mice): 44% |
| CCn1c(=O)c2c(nc(/C=C/c3cc(OC)ccc3OC(C)=O)n2C)n(CC)c1=O [Compound 23, (E)-8-(2-Acetoxy-5-methoxystyryl)-1,3-diethyl-7-methylxanthine] | 101 | 90 | – |
| CCCn1c(=O)c2c(nc(/C=C/c3cc(OC(C)=O)cc(OC(C)=O)c3)n2C)n(CCC)c1=O [Compound 9, (E)-8-(3,5-Diacetoxystyryl)-7-methyl-1,3-dipropylxanthine] | 96 | 88 | – |
| CCn1c(=O)c2c(nc(/C=C/c3ccc(OC)c(OC(C)=O)c3)n2C)n(CC)c1=O [Compound 16, (E)-8-(3-Acetoxy-4-methoxystyryl)-1,3-diethyl-7-methylxanthine] | 96 | 81 | – |
